According to article PMC10208570, “Peptidomimetic antibiotics disrupt the lipopolysaccharide transport bridge of drug-resistant Enterobacteriaceae” (Science Advances, 2023):
In brackets after ≈: the same amount, converted by molar mass. Like-named read-outs stand apart in the source and are kept apart here. Where a SMILES comes first, the peptide text is derived from it. Bridges are numbered along the chain shown (N, C = ends). [ ]: non-standard residue; d: D form. The star is where a group is joined. Val(Nα-amidino) = CC(C)[C@H](NC(=N)N)C(=O)*; Hyp = O=C(O)[C@@H]1C[C@@H](O)CN1; Pen = CC(C)(S)[C@H](N)C(=O)O; dDab = NCC[C@@H](N)C(=O)O; Dab = NCC[C@H](N)C(=O)O

Assays:
[1] = Plasma protein binding; format: in vitro ADME, mouse; details: mass balance method, ultrafiltration 30-kDa cutoff; pooled mouse plasma adjusted to pH 7.5; 10 mg/liter; 30 min at 37°C; biological replicates; read-out: Plasma protein binding (% bound) Mouse (converted)
Description: (§1) After ultrafiltration, protein binding was determined by subtracting the percentage of compound in ultrafiltrate from the total amount of compound in spiked plasma (table S4A).

[2] = 7-day repeated dosing (IV bolus q12h); format: in vivo, CD-1 mice; details: mice, intravenous BID 15 mg/kg per dose, seven consecutive days
Description: Two different study designs were used to determine the potential toxicity of these compounds, when given BID via intravenous bolus (injection) 12 hours apart to CD-1 mice. In the first type of study, male mice were dosed on a single day at three escalating dose levels (three mice per group), while the second type of study male mice (nine mice per group) were dosed for seven consecutive days with the same administration regimen (q12h). […] Detailed clinical observations were conducted up to at least 3 hours after the first daily dosing and up to at least 1 hour after the second daily dosing. In addition, the Irwin battery of tests was used to assess the mice neurobiological and physiological state during the single day study at 30, 60, 120, 180, and 240 min after the first administration. The following parameters were included in the observations: occurrence of abnormal gait, catalepsy, piloerection, abnormal respiration, increase or decrease in spontaneous activity, spontaneous activity following audible stimuli (tapping on side of cage), touch response, and body tonus. Any additional symptoms observed were also reported.

[3] = tested on: Enterobacter aerogenes; details: CLSI microdilution method; LptA sequence identity 88
Description: (§2) MIC assays [Clinical and Laboratory Standards Institute (CLSI) methodology] and serial passage studies were performed as described by Luther et al. ([6]). […] Resistant mutants were isolated, and their MIC values were determined and sent to Microbes NG (Birmingham, United Kingdom) for whole-genome sequencing and bioinformatic analysis.

[4] = tested on: Escherichia coli; details: CLSI microdilution method; LptA sequence identity 100
Description: as §2

[5] = tested on: Citrobacter freundii; details: CLSI microdilution method; LptA sequence identity 92
Description: as §2

[6] = tested on: Stenotrophomonas maltophilia; details: CLSI microdilution method; LptA sequence identity 25
Description: as §2

[7] = tested on: Proteus mirabilis; details: CLSI microdilution method; LptA sequence identity 54
Description: as §2

[8] = tested on: Serratia marcescens; details: CLSI microdilution method; LptA sequence identity 64
Description: as §2

[9] = tested on: Salmonella enterica subsp. enterica; details: CLSI microdilution method; LptA sequence identity 91
Description: as §2

[10] = tested on: Enterobacter cloacae; details: CLSI microdilution method; LptA sequence identity 86
Description: as §2

[11] = tested on: Morganella morganii; details: CLSI microdilution method; LptA sequence identity 57
Description: as §2

[12] = tested on: Raoultella planticola; details: CLSI microdilution method; LptA sequence identity 84
Description: as §2

[13] = tested on: Klebsiella pneumoniae; details: CLSI microdilution method; LptA sequence identity 88
Description: as §2

[14] = tested on: Moraxella catarrhalis; details: CLSI microdilution method; LptA sequence identity 28
Description: as §2

[15] = tested on: Providencia stuartii; details: CLSI microdilution method; LptA sequence identity 55
Description: as §2

[16] = tested on: Pantoea agglomerans; details: CLSI microdilution method; LptA sequence identity 69
Description: as §2

[17] = tested on: Hafnia alvei; details: CLSI microdilution method; LptA sequence identity 72
Description: as §2

[18] = tested on: Klebsiella oxytoca; details: CLSI microdilution method; LptA sequence identity 100
Description: as §2

[19] = tested on: Proteus vulgaris; details: CLSI microdilution method; LptA sequence identity 55
Description: as §2

[20] = tested on: Providencia rettgeri; details: CLSI microdilution method; LptA sequence identity 54
Description: as §2

[21] = tested on: Shigella flexneri; details: CLSI microdilution method; LptA sequence identity 100
Description: as §2

[22] = tested on: panel of 121 Enterobacteriaceae including CRE, MDR, and XDR isolates; test: organism not typed; details: for MIC50 (n=121): CLSI microdilution method, 121 isolates
Description: as §2

[23] = molecular target: T1, LptAm (Escherichia coli, UniProt P0ADV1); test: biochemical; format: binding, E. coli
T1 construct: His6-GB1 (N, cleaved yes); made in house; host or cells: E. coli BL21 (DE3)
Description: (§3) Protein stocks were purified and concentrated in buffer 1 [50 mM Na-Pi (pH 7) and 150 mM NaCl] and, if necessary, diluted to desired concentrations using buffer 2 [50 mM Na-Pi (pH 7), 150 mM NaCl, and 0.05% Tween 20]. Peptide stocks and fluorescently labeled peptide stocks were made in buffer 2. Every serial dilution consisted of 24 wells, the first well with the highest concentrate and the last well (well 24) with the lowest. First, 50 μl of buffer 2 was added to the wells 2 to 24 of each serial dilution. Then, 100 μl of concentrated unlabeled peptide/protein in their respective buffers was added to the first well. Fifty microliters were taken from the first well and added to the second well for a 1:1 serial dilution and continued for the 24 wells. […] Plates were covered with adhesive seals and left to incubate overnight at 4°C before FP measurements the next day. Anisotropy was measured using the Tecan Safire2 plate reader using a 10-nm bandwidth and setting the excitation and emission wavelengths to 635 and 670 nm, respectively. The G-factor (G) was also determined empirically as 1.094 for the instrument and included in all the anisotropy calculations.
(§4) For the indirect binding assays, r was calculated in the same manner as the direct binding assays. […] The control was subtracted from r to yield r′. Data were fit to a sigmoidal interpolation model on GraphPad Prism 9, and an IC50 was generated for each unlabeled peptide or protein measured.

[24] = molecular target: T2, LptAmQ62L (Escherichia coli, UniProt P0ADV1, Q62L); test: biochemical; format: binding, E. coli
T2 construct: His6-GB1 (N, cleaved yes); made in house; host or cells: E. coli BL21 (DE3)
Description: as §3, §4

[25] = Plasma protein binding; format: in vitro ADME, human; details: mass balance method, ultrafiltration 30-kDa cutoff; pooled human plasma adjusted to pH 7.5; 10 mg/liter; 30 min at 37°C; biological replicates; read-out: Plasma protein binding (% bound) Human (converted)
Description: as §1

T2 sequence (P0ADV1 28-159 Q62L): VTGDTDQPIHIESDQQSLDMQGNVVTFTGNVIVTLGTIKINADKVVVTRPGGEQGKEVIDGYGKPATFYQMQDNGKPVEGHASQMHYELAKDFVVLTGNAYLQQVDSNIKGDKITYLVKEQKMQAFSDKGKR
T1 sequence (P0ADV1 28-159): as the sequence (P0ADV1 28-159 Q62L) above, with L35Q counted along it

Row | SMILES | fraction unbound at 30 min, 10 mg/liter [1] | Tolerability in repeat dose safety study [2] | MIC Enterobacter aerogenes [3] | MIC Escherichia coli [4] | MIC Citrobacter freundii [5] | MIC Stenotrophomonas maltophilia [6] | MIC Proteus mirabilis [7] | MIC Serratia marcescens [8] | MIC Salmonella enterica subsp. enterica [9] | MIC Enterobacter cloacae [10] | MIC Morganella morganii [11] | MIC Raoultella planticola [12] | MIC Klebsiella pneumoniae [13] | MIC Moraxella catarrhalis [14] | MIC Providencia stuartii [15] | MIC Pantoea agglomerans [16] | MIC Hafnia alvei [17] | MIC Klebsiella oxytoca [18] | MIC Proteus vulgaris [19] | MIC Providencia rettgeri [20] | further results
1 | CC[C@H](C)[C@H](NC(=O)[C@@H]1C[C@@H](O)CN1C(=O)[C@@H](N)C(C)C)C(=O)N[C@H](C(=O)N[C@@H](Cc1ccc(O)cc1)C(=O)N[C@@H]1C(=O)N[C@@H](CC(N)=O)C(=O)N[C@@H](CCCNC(=N)N)C(=O)N[C@@H](CCN)C(=O)N[C@@H]([C@@H](C)O)C(=O)N[C@H](CCN)C(=O)N[C@@H](CCCCN)C(=O)N[C@H](C(=O)N[C@@H](CCN)C(=O)N[C@@H](CCCNC(=N)N)C(=O)N[C@@H](Cc2ccc(O)cc2)C(=O)O)CSSC1(C)C)[C@@H](C)O [Compound 6] (H-V[Hyp]ITY[Pen]NR[Dab]T[dDab]KC[Dab]RY-OH; disulfide 6-13) | 0.11 | well tolerated with no adverse events or detectable kidney toxicity | 0.5 µg/mL (≈ 0.255 µM) | 0.03 µg/mL (≈ 0.0153 µM) | 0.13 µg/mL (≈ 0.0663 µM) | > 8 µg/mL | > 8 µg/mL | > 8 µg/mL | 0.5 µg/mL (≈ 0.255 µM) | 0.13 µg/mL (≈ 0.0663 µM) | > 8 µg/mL | 0.06 µg/mL (≈ 0.0306 µM) | 0.13 µg/mL (≈ 0.0663 µM) | > 8 µg/mL | > 8 µg/mL | 4 µg/mL (≈ 2.04 µM) | 2 µg/mL (≈ 1.02 µM) | 0.25 µg/mL (≈ 0.128 µM) | > 8 µg/mL | > 8 µg/mL | MIC Shigella flexneri [21]: 0.03 µg/mL (≈ 0.0153 µM); MIC50 (n=121) [22]: 0.25 µg/mL (≈ 0.128 µM); MIC90 ([22]; panel of 121 Enterobacteriaceae including CRE, MDR, and XDR isolates): 1 µg/mL (≈ 0.51 µM); IC50 [23]: 16.9 ± 1 nM; Ki [23]: 2.8 ± 0.2 nM; IC50 [24]: 14.6 ± 2.5 nM; Ki [24]: 9.9 ± 1.7 nM; fraction unbound at 30 min, 10 mg/liter [25]: 0.38
2 | CC[C@H](C)[C@H](NC(=O)[C@@H]1C[C@@H](O)CN1C(=O)[C@@H](NC(=N)N)C(C)C)C(=O)N[C@H](C(=O)N[C@@H](Cc1ccc(O)cc1)C(=O)N[C@@H]1C(=O)N[C@@H](CC(N)=O)C(=O)N[C@@H](CCCNC(=N)N)C(=O)N[C@@H](CCN)C(=O)N[C@@H]([C@@H](C)O)C(=O)N[C@H](CCN)C(=O)N[C@@H](CCCCN)C(=O)N[C@H](C(=O)N[C@@H](CCN)C(=O)N[C@@H](CCCNC(=N)N)C(=O)N[C@@H](Cc2ccc(O)cc2)C(=O)O)CSSC1(C)C)[C@@H](C)O [Compound 7] ({Val(Nα-amidino)}-[Hyp]ITY[Pen]NR[Dab]T[dDab]KC[Dab]RY-OH; disulfide 5-12) | 0.06 | well tolerated with no adverse events or detectable kidney toxicity | 1 µg/mL (≈ 0.5 µM) | 0.06 µg/mL (≈ 0.03 µM) | 0.5 µg/mL (≈ 0.25 µM) | > 8 µg/mL | > 8 µg/mL | > 8 µg/mL | 1 µg/mL (≈ 0.5 µM) | 0.5 µg/mL (≈ 0.25 µM) | > 8 µg/mL | 0.25 µg/mL (≈ 0.125 µM) | 0.25 µg/mL (≈ 0.125 µM) | > 8 µg/mL | > 8 µg/mL | > 8 µg/mL | 4 µg/mL (≈ 2 µM) | 0.5 µg/mL (≈ 0.25 µM) | > 8 µg/mL | > 8 µg/mL | MIC Shigella flexneri [21]: 0.06 µg/mL (≈ 0.03 µM); MIC50 (n=121) [22]: 0.25 µg/mL (≈ 0.125 µM); IC50 [23]: 11.7 ± 0.5 nM; Ki [23]: 1.9 ± 0.1 nM; IC50 [24]: 25.4 ± 4.6 nM; Ki [24]: 17.2 ± 3.1 nM; fraction unbound at 30 min, 10 mg/liter [25]: 0.19
